Measured values: publication PMC7594840, “Identification of histone deacetylase inhibitors with (arylidene)aminoxy scaffold active in uveal melanoma cell lines” (Journal of Enzyme Inhibition and Medicinal Chemistry, 2020)

Target: T1, HDAC6 (Homo sapiens, UniProt Q9UBN7)
T1 construct: purchased BPS Bioscience
T1 sequence (Q9UBN7 1-1215): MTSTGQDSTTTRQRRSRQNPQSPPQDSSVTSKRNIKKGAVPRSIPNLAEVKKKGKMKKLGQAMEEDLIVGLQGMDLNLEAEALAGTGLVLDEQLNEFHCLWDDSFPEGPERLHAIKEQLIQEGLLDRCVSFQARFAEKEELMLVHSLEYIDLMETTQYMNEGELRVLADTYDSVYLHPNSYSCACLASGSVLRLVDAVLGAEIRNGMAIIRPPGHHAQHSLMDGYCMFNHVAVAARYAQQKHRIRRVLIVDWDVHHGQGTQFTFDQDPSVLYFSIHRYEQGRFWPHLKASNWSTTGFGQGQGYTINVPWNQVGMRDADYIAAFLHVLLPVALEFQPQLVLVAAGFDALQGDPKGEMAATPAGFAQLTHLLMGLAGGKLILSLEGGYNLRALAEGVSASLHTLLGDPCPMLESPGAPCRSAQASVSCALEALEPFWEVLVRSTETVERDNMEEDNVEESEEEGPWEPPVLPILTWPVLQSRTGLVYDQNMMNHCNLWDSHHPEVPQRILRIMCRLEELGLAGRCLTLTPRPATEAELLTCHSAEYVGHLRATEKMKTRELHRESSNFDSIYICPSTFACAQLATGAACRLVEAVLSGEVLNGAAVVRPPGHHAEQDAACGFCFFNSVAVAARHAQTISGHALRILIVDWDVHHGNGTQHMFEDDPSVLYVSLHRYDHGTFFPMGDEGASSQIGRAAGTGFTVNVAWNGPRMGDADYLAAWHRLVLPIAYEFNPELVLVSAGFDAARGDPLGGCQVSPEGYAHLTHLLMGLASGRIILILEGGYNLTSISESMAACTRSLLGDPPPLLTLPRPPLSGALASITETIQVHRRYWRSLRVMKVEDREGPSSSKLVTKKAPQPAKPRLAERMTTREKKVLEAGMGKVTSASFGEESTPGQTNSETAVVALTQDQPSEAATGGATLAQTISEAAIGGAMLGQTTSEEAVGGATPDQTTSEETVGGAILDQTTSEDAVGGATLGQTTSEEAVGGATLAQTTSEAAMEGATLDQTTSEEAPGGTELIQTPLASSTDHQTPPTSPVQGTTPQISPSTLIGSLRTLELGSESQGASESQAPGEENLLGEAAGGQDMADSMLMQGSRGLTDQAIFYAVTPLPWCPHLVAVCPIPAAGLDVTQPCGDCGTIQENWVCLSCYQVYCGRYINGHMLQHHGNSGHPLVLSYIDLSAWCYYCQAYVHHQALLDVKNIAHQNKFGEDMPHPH
Test: Microfluidic chip-based HDAC inhibition assay (Calliper off-chip mobility shift), HDAC6
Assay type: biochemical
From the text: Test compounds were screened against human histone deacetylases (HDACs) 1, 3, 6, and 8 using the Calliper off-chip mobility shift assay technology. All HDACs were purchased from BPS Bioscience and four selective substrates were used according to the targeted isozyme. […] Buffers components, except for CR-3 (LabChip Coating Reagent 3, purchased from PerkinElmer, Product Number 760050) and Panobinostat (LBH589, purchased from ApexBio Technology)[35]^,[36] were purchased from Sigma Aldrich. […] (all purchased from Selleck Chemicals).

`O=C(CCCCO/N=C/c1cnc2ccccc2c1)NO` [Compound 2f, (E)-N-hydroxy-5-(((quinolin-3-ylmethylene)amino)oxy)pentanamide] was tested, and the IC50 was 10 nM and the “times less active than SAHA on HDAC6” value (compared with SAHA) was 7 times.
